Results reported in PMC5796218 (International Journal of Molecular Sciences, 2018).
Structures can show the parent of a compound that is named as a salt. Where two headings read alike, the source gives them in different places.

Columns and labels:
[1] = molecular target: D1DR 89–100 peptide (dopamine receptor D1) (Homo sapiens, UniProt P21728); test: biochemical
[2] = molecular target: D1DR 175–188 peptide (dopamine receptor D1) (Homo sapiens, UniProt P21728); test: biochemical
[3] = molecular target: B2AR 103–113 peptide (β-2-adrenergic receptor) (Homo sapiens, UniProt P07550); test: biochemical
Experimental: (§1) Each of these receptor peptides were made into individual stock solutions with a concentration of 1 mg/mL in pH 7.40 phosphate buffered saline solution (Fischer Scientific, Hampton, NH, USA). For each individual test, the stock solution was diluted to 0.1 or 0.2 mg/mL solution. […] The adrenergic or compounds were made up at 1.0 mM solutions and then serially diluted by thirds eleven times using phosphate buffer.
(§2) After the solutions were made, a 96-well quartz crystal plate was prepared to be run through the spectrophotometer at room temperature (approximately 24 °C). […] The absorbance of each receptor peptide without the presence of the adrenergic compound was measured as well. The absorbance of each well was measured at every 10-nm increment from 190–260 nm. The maximum absorbance that can be measured was set to be 4. Each well had 200 μL of solution, so if the absorbance of one component was being measured, it was diluted by half with phosphate buffer.
(§3) If the measured absorbance is different than the additive absorbance of each compound, then that indicates some sort of molecular interaction. The binding can be quantified by graphing the difference in absorbance against the concentration of the compound varied to provide a binding curve. The absorbance for the phosphate buffer is subtracted for each well before any calculations are done. […]

[4] = molecular target: MuOPR 132–143 peptide (mu opioid receptor) (Homo sapiens, UniProt P35372); test: biochemical
[5] = molecular target: HIST 89–98 peptide (histamine 1 receptor) (Homo sapiens, UniProt P35367); test: biochemical
[6] = molecular target: HIST 105–115 peptide (histamine 1 receptor) (Homo sapiens, UniProt P35367); test: biochemical
[7] = molecular target: B2AR 93–100 peptide (β-2-adrenergic receptor) (Homo sapiens, UniProt P07550); test: biochemical
Experimental: as §1, §2
(§4) If the measured absorbance is different than the additive absorbance of each compound, then that indicates some sort of molecular interaction. The binding can be quantified by graphing the difference in absorbance against the concentration of the compound varied to provide a binding curve. The absorbance for the phosphate buffer is subtracted for each well before any calculations are done. The data are analyzed by finding the additive absorbance, and plotting the difference between this absorbance and the actual absorbance against the concentration of the adrenergic compound. […] The binding constants were estimated from the half-saturation point at 200 nm since the absorbance differences tended to be maximized at this wavelength.

[8] = molecular target: B2AR 97–106 peptide (β-2-adrenergic receptor) (Homo sapiens, UniProt P07550); test: biochemical
Experimental: as §1, §2, §4

[9] = molecular target: HIST 166–172 peptide (histamine 1 receptor) (Homo sapiens, UniProt P35367); test: biochemical
[10] = molecular target: MuOPR 38–51 peptide (mu opioid receptor) (Homo sapiens, UniProt P35372); test: biochemical
[11] = molecular target: HIST 96–107 peptide (histamine 1 receptor) (Homo sapiens, UniProt P35367); test: biochemical
[12] = molecular target: HIST 177–183 peptide (histamine 1 receptor) (Homo sapiens, UniProt P35367); test: biochemical
[13] = molecular target: MuOPR 111–122 peptide (mu opioid receptor) (Homo sapiens, UniProt P35372); test: biochemical
[14] = molecular target: MuOPR 121–131 peptide (mu opioid receptor) (Homo sapiens, UniProt P35372); test: biochemical
[15] = molecular target: HIST 77–87 peptide (histamine 1 receptor) (Homo sapiens, UniProt P35367); test: biochemical
[16] = molecular target: B2AR 175–188 peptide (β-2-adrenergic receptor) (Homo sapiens, UniProt P07550); test: biochemical
Experimental: as §1, §2, §4

[17] = molecular target: MuOPR 211–226 peptide (mu opioid receptor) (Homo sapiens, UniProt P35372); test: biochemical
[18] = molecular target: INSR 105–113 peptide (insulin receptor) (Homo sapiens, UniProt P06213); test: biochemical
Experimental: as §1, §2, §4

muOPR peptides = muOPR peptides (Homo sapiens, UniProt P35372); type: binding
Experimental: as §1, §2, §4

[19] = molecular target: INSR 157–166 peptide (insulin receptor) (Homo sapiens, UniProt P06213); test: biochemical
Experimental: as §1, §2, §3

[20] = molecular target: intact, purified human mu opioid receptor (muOPR) (Homo sapiens, UniProt P35372); test: biochemical; conditions: for binding to intact muOPR (in words): UV spectra, serial additions in Tris buffer
Experimental: MuOPR expression was achieved using the muOPR transformed C43 (DE3) cell strain of E. coli in Terrific Broth medium as reported earlier with 0.4 mM isopropyl β-D-1-thiogalactopyranoside induction at 18 °C for 24 h. Bacterial cell cultures were harvested by centrifugation at 4000× g for 20 min. Periplasmic fraction from the harvested cells was removed by osmatic shock. Cells were resuspended in 7 mL of lysis buffer (20 mM Tris-HCl pH 8.0, 150 mM NaCl, 10% glycerol, 2 mM MgCl2, 10 μM E-64, 1 μM pepstatin-A, 10 μM leupeptin, 1 mM pefabloc SC, 2 mM β-Mercaptoethanol, 1 mg/mL lysozyme, 30 U/mL DNase) per gram of cell pellet and incubated on ice for 30 min with continuous stirring. […] The solubilized membrane sample was centrifuged at 100,000× g for 1 h at 4 °C and the supernatant was collected. Imidazole was added to the supernatant to a final concentration of 5 mM before starting purification using Ni-NTA resin in batch mode as reported. Eluted fractions with muOPR were pooled, concentrated and subjected to size exclusion chromatography (SEC) using HiLoad 16/600 Superdex 200 pg column (GE Healthcare Sciences, Berlin, Germany) equilibrated with 20 mM Tris pH 8, 150 mM NaCl, 0.1% Fos12, 10% Glycerol and 1 mM TCEP. SEC elution fractions were analyzed by SDS-PAGE and western blotting with Monoclonal Anti-polyHistidine-Peroxidase antibody (Sigma-Aldrich) for protein presence and purity before use.
The spectrum of the wells was then recorded from 190 to 260 nm using a Spectramax plus scanning spectrophotometer (Molecular Devices, San Jose, CA, USA) using SOFTMax PRO software (Molecular Devices, San Jose, CA, USA). The procedure described above was repeated an additional eleven times using compound dilutions of increasing concentration each time.
Data were analyzed in Excel. The raw spectra were processed by averaging the three runs of each condition and then subtracting the absorbance of the buffer alone at each volume. The triplicate data for each experimental condition were averaged. The compound + buffer data were subtracted from the muOPR + compound data at each volume to leave the spectrum of the muOPR under that experimental condition. […] Because the final calculations involve several subtractions, error bars […].

[21] = molecular target: Met-enkephalin (Homo sapiens); test: UV spectroscopy; conditions: modification not given

muOPR peptides, sequence (P35372 with tags, fused parts or gaps): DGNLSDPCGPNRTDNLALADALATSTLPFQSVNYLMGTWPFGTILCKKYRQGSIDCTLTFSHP
intact, purified human mu opioid receptor (muOPR), sequence (P35372 whole entry): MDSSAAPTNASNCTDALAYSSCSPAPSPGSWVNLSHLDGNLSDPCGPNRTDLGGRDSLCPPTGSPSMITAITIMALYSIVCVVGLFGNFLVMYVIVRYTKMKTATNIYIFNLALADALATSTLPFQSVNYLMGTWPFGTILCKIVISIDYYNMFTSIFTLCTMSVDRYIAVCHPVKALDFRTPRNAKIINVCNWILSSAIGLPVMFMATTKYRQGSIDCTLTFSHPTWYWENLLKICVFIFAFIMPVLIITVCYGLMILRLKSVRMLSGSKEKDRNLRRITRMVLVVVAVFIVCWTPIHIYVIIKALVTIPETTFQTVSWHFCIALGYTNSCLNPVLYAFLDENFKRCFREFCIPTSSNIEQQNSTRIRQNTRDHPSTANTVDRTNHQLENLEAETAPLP

CN1CC[C@]23c4c5ccc(O)c4O[C@H]2[C@@H](O)C=C[C@H]3[C@H]1C5 [Morph, morphine sulfate]
Kd [1]: 20 µM | Kd [2]: 10 µM

OC[C@H]1OC(O)[C@H](O)[C@@H](O)[C@@H]1O (some centres unmarked) [GLUC, glucose]
Kd [3]: > 1000 µM | Kd [4]: > 1000 µM | Kd [5]: > 1000 µM | Kd [6]: > 1000 µM | Kd [7]: > 1000 µM | Kd [1]: > 1000 µM | Kd [8]: > 1000 µM | Kd [9]: > 1000 µM | Kd [10]: > 1000 µM | Kd [11]: > 1000 µM | Kd [12]: > 1000 µM | Kd [13]: > 1000 µM | Kd [14]: > 1000 µM | Kd [15]: > 1000 µM | Kd [2]: > 1000 µM | Kd [16]: > 1000 µM | Kd [17]: > 1000 µM

Cc1cc2nc3c(=O)[nH]c(=O)nc-3n(C[C@H](O)[C@H](O)[C@H](O)CO)c2cc1C [RIBO, riboflavin]
Kd [4]: 100 µM | Kd [5]: 400 µM | Kd [6]: 450 µM | Kd [7]: 400 µM | Kd [1]: 600 µM | Kd [8]: 600 µM | Kd [18]: 500 µM | Kd [10]: 50 µM | Kd [11]: 500 µM | Kd [13]: > 1000 µM | Kd [14]: > 1000 µM | Kd [15]: > 1000 µM | Kd [2]: 300 µM | Kd [16]: 500 µM | Kd [17]: > 1000 µM

NCCc1c[nH]cn1 [Hist, histamine]
binding to the muOPR peptides (in words) (muOPR peptides): no measurable binding

C=CCN1CC[C@]23c4c5ccc(O)c4O[C@H]2C(=O)CC[C@@]3(O)[C@H]1C5 [Nalox, naloxone]
Kd [19]: 200 µM | Kd [3]: 3 µM | Kd [7]: 5 µM | Kd [1]: 5 µM | Kd [8]: 6 µM | Kd [18]: 20 µM | Kd [2]: 20 µM | Kd [16]: 40 µM

NCCc1ccc(O)c(O)c1 [DOP, dopamine]
binding to the muOPR peptides (in words) (muOPR peptides): only displayed the low affinity binding

O=C1O[C@H]([C@@H](O)CO)C(O)=C1O [ASC, ascorbic acid]
binding to intact muOPR (in words) [20]: No significant binding | binding to the muOPR peptides (in words) (muOPR peptides; UV spectroscopy): did not bind

O=C(O)CN(CCN(CC(=O)O)CC(=O)O)CC(=O)O [EDTA, ethylenediaminetetraacetic acid]
Kd [19]: > 1000 µM | Kd [18]: > 1000 µM

CC(=O)OCC[N+](C)(C)C [ACh, acetylcholine]
Kd [4]: > 1000 µM | Kd [20]: > 1000 µM | Kd ([20]; Kd @ 210 nm (μM), 210 nm): > 1000 µM | binding to intact muOPR (in words) [20]: No significant binding | binding to the muOPR peptides (in words) (muOPR peptides; UV spectroscopy): no measurable binding | Kd [10]: > 1000 µM | Kd [13]: > 1000 µM | Kd [14]: > 1000 µM | Kd [17]: > 1000 µM

NCCc1c[nH]c2ccc(O)cc12 [5HT, 5-hydroxytryptamine]
Kd [4]: 100 µM | Kd [10]: 100 µM | Kd [13]: 100 µM | Kd [14]: 350 µM | Kd [17]: 90 µM

NLALADALATST
Kd [21]: 80 µM

KYRQGSIDCTLTFSHP
Kd [21]: 1 µM

TLPFQSVNYL
Kd [21]: 90 µM
